US4298375A, “2-Substituted-5-phenyl-4-thiazolecarboxylic acids and their derivatives as safening agents” (Monsanto Company, priority 1979, dated 1981)

How the values were obtained:
Assay type in all cases: in vivo
[1] = test system: Green Foxtail; test: Example 6: herbicidal effect on weed (Green Foxtail) of alachlor with or without safening agent, soil treated with mixture, approximately 21 days
Procedure: (§1) A good grade of top soil was placed in a plastic pot and compacted to a depth of approximately 1.27 cm. from the top of said pot. A predetermined number of sorghum seeds and weed seeds were placed on top of the soil. A cover layer, approximately 1.27 cm., was placed on top of said seeds. The soil was then treated with a mixture of the safening agent and alachlor dispersed or dissolved in a suitable solvent. For each test series, pots were treated with only the herbicide. Additionally, pots were treated with only the safening agent. The herbicidal effect was observed approximately 21 days after treatment. Table IV summarizes the results obtained when the compounds of the invention were tested in accordance with the procedure of Example 6. Note that in each test a control is used in which the sorghum plants are treated with various rates of alachlor herbicide alone.

[2] = test system: sorghum; test: Example 6: herbicidal effect on sorghum of alachlor with or without safening agent, soil treated with mixture, approximately 21 days; settings: for safening when tested in accordance with the procedure of Example 6: alachlor
Procedure: as §1

[3] = test system: sorghum; test: Example 5: safening against triallate, alachlor or butachlor, safener and herbicide incorporated in soil, greenhouse, approximately 21 days; design: key: (herbicide alone + safener alone, capped at 100) minus combination effect; settings: safening agent 8.96 kg/h
Procedure: A good grade of top soil is placed in a container and compacted to a depth of approximately 1.27 cm. from the top of said container. A predetermined number of sorghum seeds to be tested are placed on top of the soil. A quantity of soil sufficient to substantially fill the container is measured and placed in a second container. A measured quantity of the safening agent dispersed or dissolved in a suitable carrier is applied to the soil in the second container. A measured quantity of triallate, alachlor or butachlor herbicide dispersed or dissolved in a suitable carrier is then sprayed on the soil already treated with the safening agent. The soil containing the safening agent and the herbicide is thoroughly mixed. This mixing is sometimes referred to as incorporation of the herbicide and safening agent into the soil. The mixing or incorporation provides a substantially uniform distribution of the safening agent and herbicide throughout the soil. The sorghum seeds are covered with the soil containing the safening agent and herbicide and the pans are leveled. The pans are then placed on a sand bench in the greenhouse and watered from below as needed. The sorghum plants are observed at the end of approximately 21 days and the results in terms of percent inhibition of each seed lot are recorded. For each test series a pan of plants is also prepared containing no herbicide and no safening agent as a control. Additionally, for each test, a pan of plants is prepared with soil covering the seed containing no herbicide and only the measured amount of safening agent being incorporated into the soil covering the seeds to ascertain any herbicidal effect of the safening agent alone. For each series of tests the herbicidal effect of the herbicide is observed from pans of sorghum plants tested with the same quantity of herbicide alone. The "safening effect" is determined by adding the herbicidal effect of the herbicide when applied alone to the herbicidal effect of the safening agent when applied alone (in no instance, however, will this sum be greater than 100) and subtracting from that the herbicidal effect obtained when the herbicide and safening agent are incorporated into the soil as discussed above.

[4] = alachlor alone 0.56 kg/h, no safening agent, first test
[5] = alachlor alone 0.56 kg/h, no safening agent, second test
[6] = alachlor alone 1.12 kg/h, no safening agent, first test
[7] = alachlor alone 1.12 kg/h, no safening agent, second test
[8] = alachlor alone 2.24 kg/h, no safening agent, first test
[9] = alachlor alone 2.24 kg/h, no safening agent, second test
[10] = alachlor alone 4.48 kg/h, no safening agent, first test
[11] = alachlor alone 4.48 kg/h, no safening agent, second test
[12] = alachlor 2.24 kg/h, (herbicide alone + safener alone) minus combination
[13] = butachlor 6.72 kg/h, (herbicide alone + safener alone) minus combination
[14] = triallate 0.56 kg/h, (herbicide alone + safener alone) minus combination
[15] = safening agent 8.96 kg/h + alachlor 0.56 kg/h
[16] = safening agent 8.96 kg/h + alachlor 1.12 kg/h
[17] = safening agent 8.96 kg/h + alachlor 2.24 kg/h
[18] = safening agent 8.96 kg/h + alachlor 4.48 kg/h
[19] = safening agent 8.96 kg/h alone, alachlor 0.00 kg/h
[20] = butachlor 6.72 kg/h, value given as symbol *
[21] = safening agent 9.96 kg/h (so in the source) + alachlor, rate not printed on this line (line below 4.48 kg/h)

Row | Structure (SMILES) | Safening Effect [3, 12] | Safening Effect [3, 13] | Safening Effect [3, 14] | safening when tested in accordance with the procedure of Example 6 [2] | % Inhibition Green Foxtail [1, 15] [%] | % Inhibition Green Foxtail [1, 16] [%] | % Inhibition Green Foxtail [1, 18] [%] | % Inhibition Green Foxtail [1, 19] [%] | % Inhibition Sorghum [2, 15] [%] | % Inhibition Sorghum [2, 16] [%] | % Inhibition Sorghum [2, 18] [%] | % Inhibition Sorghum [2, 19] [%] | Safening Effect [3, 20] | further results
1 | CCc1cccc(CC)c1N(COC)C(=O)CCl [Alachlor, 2-chloro-2',6'-diethyl-N-(methoxymethyl)acetanilide, reference compound] |  |  |  |  |  |  |  |  |  |  |  |  |  | % Inhibition Green Foxtail [1, 4]: 98%; % Inhibition Green Foxtail [1, 5]: 98%; % Inhibition Green Foxtail [1, 6]: 99%; % Inhibition Green Foxtail [1, 7]: 98%; % Inhibition Green Foxtail [1, 8]: 100%; % Inhibition Green Foxtail [1, 9]: 98%; % Inhibition Green Foxtail [1, 10]: 100%; % Inhibition Green Foxtail [1, 11]: 100%; % Inhibition Sorghum [2, 4]: 80%; % Inhibition Sorghum [2, 5]: 80%; % Inhibition Sorghum [2, 6]: 85%; % Inhibition Sorghum [2, 7]: 85%; % Inhibition Sorghum [2, 8]: 90%; % Inhibition Sorghum [2, 9]: 85%; % Inhibition Sorghum [2, 10]: 95%; % Inhibition Sorghum [2, 11]: 100%
2 | COC(=O)c1nc(N)sc1-c1ccccc1 [Example 1, Methyl 2-Amino-5-Phenyl-4-Thiazolecarboxylate] | 24 | 35 | 56 | no significant safenin |  |  |  |  |  |  |  |  |  | 
3 | COC(=O)c1nc(Cl)sc1-c1ccccc1 [Example 2, Methyl 2-Chloro-5-Phenyl-4-Thiazolecarboxylate] | 20 | 40 | 45 |  | 100 | 100 | 100 | 0 | 30 | 65 | 70 | 0 |  | % Inhibition Green Foxtail [1, 17]: 100%; % Inhibition Sorghum [2, 17]: 70%
4 | COC(=O)c1nc(OC)sc1-c1ccccc1 [Example 3, Methyl 2-Methoxy-5-Phenyl-4-Thiazolecarboxylate] | 23 |  | 37 |  | 100 | 100 | 100 | 0 | 50 | 65 | 40 | 0 | * (Observed safening effect was less than 19.) | % Inhibition Green Foxtail [1, 21]: 100%; % Inhibition Sorghum [2, 21]: 75%
5 | COC(=O)c1nc(Sc2ccccc2)sc1-c1ccccc1 [Example 4, Methyl 5-Phenyl-2-Phenylthio-4-Thiazolecarboxylate] | 20 |  | 35 | no significant safenin |  |  |  |  |  |  |  |  | * (Observed safening effect was less than 19.) | 
